Values of other authors as cited in PMC7494335 (Science Advances, 2020).

System: humans
Conditions: in vivo

NCCc1c[nH]cn1 [histamine]
pain if injected alone / addition to Dendrocnide extract: neither changed the nature of the pain caused by Dendrocnide extract nor caused substantial long-lasting pain if injected alone
